Measured values: patent US9895363B2, “Methods for modulating function of proliferating cell nuclear antigen (PCNA) and treating cancer with PCNA-targeting compounds” (University of Cincinnati, priority 2010, dated 2018)

Assays:
[1] = tested on: DU145 prostate cancer cells; test: Growth inhibition by MTT staining, DU145; format: cell-based; conditions: DU-145, 96 h, Human tumor cells, treated four days
Method: Growth inhibitory effects of PCNA-I1 and PCNA-I2 were assessed in human cancer cell lines, mouse cancer cell lines, immortalized mouse cell lines, and human primary cell lines. Specifically, growth inhibitory effects of PCNA-I1 and PCNA-I2 were assessed using MTT staining in the following cells lines: 1) human cancer cell lines including LNCaP (androgen receptor […]), 22Rv1, DU-145, LAPC-4, and PC-3 (androgen receptor […]) prostate cancer cells; MCF-7 and T47D breast cancer cells; A375 and MDA-MB435 melanoma cells; 2) mouse cancer cell lines including TRAMP-C2RE3 prostate cancer cells, B16 and K1735 melanoma cells, UV2237 fibrosarcoma cells, and CT-26 colon cancer cells; 3) immortalized mouse lung cell lines and mouse endothelial cell lines; and 4) primary human cell lines including umbilical endothelial cells (HUVEC, PromoCell, Heidelberg, Germany), primary bone marrow mesenchymal stem cells (HuMSC, PromoCell), primary human mammary epithelial cells (HuBrEC, Lonza, Walkersville, Md.), primary human prostate epithelial cells (HuPrEC, Lonza), and primary mouse spleen lymphocytes (isolated in this laboratory), and primary mouse bone marrow stromal cells (isolated in this laboratory). […]
IC50 values were derived from growth inhibition curves. […] Inhibition of cell growth was calculated using the formula: growth inhibition (%)=(1−A570 of treated/A570 of control)×100. […]

PC-3 cells = test: Alamar blue assay, PC-3 cells as positive control; format: cell-based, Human; conditions: FIG. 2(B)
Method: The effects of PCNA-I1 on growth of tumor cells versus primary cells was also investigated. Specifically, the effects of PCNA-1I on the growth of primary cells was investigated using primary culture of mouse lymphocytes. An Alamar blue assay was performed with PC-3 cells as a positive control. Freshly prepared mouse spleen lymphocytes were stimulated for 72 H with 2 μg/mL of concanavalin A. During the last 24 H, 20 μL/well of alamar blue was added. The fluorescence intensity was measured at 530/580 (excitation/emission).

With `Cc1ccsc1C(=O)N/N=C/c1ccc2ccccc2c1O` [PCNA-I1] the IC50 [1] was 160 nM, the “Susceptibility of PC-3 cells relative to lymphocytes” value (PC-3 cells) was “approximately three times more susceptible than lymphocytes” and the IC50 (PC-3 cells; Homo sapiens, PC-3, Alamar blue assay) was 482 nM.
